Measured values from ChEMBL document CHEMBL3885861, “Open TG-GATES”.

Organism: Rattus norvegicus
Test: Open TG-GATES - Regimen: Single
Assay type: toxicity, organism-based, Sprague-Dawley
Parameters: regimen Single, gender Male, age 6 weeks
Conditions: in vivo, po, 150 mg/kg, route gavage, dose level High; for APTT / Bas / Eos / Fbg / Hb / Ht / Lym / MCH / MCHC / MCV / Mono / Neu / PT / Plat / RBC / Ret / WBC: tissue Blood; for KIDNEY_L / KIDNEY_R / KIDNEY_TOTAL: tissue Kidney; for LIVER: tissue Liver; for A/G / ALP / ALT / AST / BUN / CRE / Ca / Cl / DBIL / GLC / IP / K / LDH / Na / PL / RALB / TBIL / TC / TG / TP / gamma-GTP: tissue Plasma

## CC(C)C(=O)Nc1ccc([N+](=O)[O-])c(C(F)(F)F)c1 [FLUTAMIDE]
3 h
  TERMINAL_BW: 210.6 g
  APTT: 19.7 s
  Bas: 0%
  Eos: 0.8%
  Fbg: 220.4 mg/dL
  Hb: 13.3 g/dL
  Ht: 38.7%
  Lym: 75%
  MCH: 21.5 pg
  MCHC: 34.4%
  MCV: 62.6 fL
  Mono: 3.6%
  Neu: 19.8%
  PT: 13 s
  Plat: 121.6 x10_4/uL
  RBC: 617.2 x10_4/ul
  Ret: 7.5%
  WBC: 89.1 x10_2/uL
  KIDNEY_L: 0.9 g
  KIDNEY_R: 0.9 g
  KIDNEY_TOTAL: 1.8 g
  LIVER: 9.3 g
  A/G: 1.4
  ALP: 936.4 IU/L
  ALT: 35.4 IU/L
  AST: 69.8 IU/L
  BUN: 9.4 mg/dL
  CRE: 0.4 mg/dL
  Ca: 10.6 mg/dL
  Cl: 102.8 meq/L
  DBIL: 0.1 mg/dL
  GLC: 212.8 mg/dL
  IP: 9.6 mg/dL
  K: 3.7 meq/L
  LDH: 158.4 IU/L
  Na: 140.8 meq/L
  PL: 152 mg/dL
  RALB: 3.4 g/dL
  TBIL: 0.2 mg/dL
  TC: 78 mg/dL
  TG: 77.4 mg/dL
  TP: 5.7 g/dL
  gamma-GTP: 1.4 IU/L
6 h
  TERMINAL_BW: 207.7 g
  APTT: 18.6 s
  Bas: 0%
  Eos: 0.6%
  Fbg: 213 mg/dL
  Hb: 13.4 g/dL
  Ht: 38.9%
  Lym: 79.6%
  MCH: 21.3 pg
  MCHC: 34.4%
  MCV: 62.1 fL
  Mono: 1.4%
  Neu: 17.8%
  PT: 12.7 s
  Plat: 127.8 x10_4/uL
  RBC: 626.6 x10_4/ul
  Ret: 7.3%
  WBC: 62.5 x10_2/uL
  KIDNEY_L: 0.9 g
  KIDNEY_R: 0.9 g
  KIDNEY_TOTAL: 1.9 g
  LIVER: 9.2 g
  A/G: 1.6
  ALP: 813 IU/L
  ALT: 32.4 IU/L
  AST: 63.8 IU/L
  BUN: 11.2 mg/dL
  CRE: 0.3 mg/dL
  Ca: 10.8 mg/dL
  Cl: 99.2 meq/L
  DBIL: 0.08 mg/dL
  GLC: 238.4 mg/dL
  IP: 9.7 mg/dL
  K: 3.8 meq/L
  LDH: 132.6 IU/L
  Na: 139.2 meq/L
  PL: 148.6 mg/dL
  RALB: 3.5 g/dL
  TBIL: 0.1 mg/dL
  TC: 84.4 mg/dL
  TG: 33.2 mg/dL
  TP: 5.7 g/dL
  gamma-GTP: 1 IU/L
9 h
  TERMINAL_BW: 207.4 g
  APTT: 19.7 s
  Bas: 0%
  Eos: 0.8%
  Fbg: 223.8 mg/dL
  Hb: 13.1 g/dL
  Ht: 38.5%
  Lym: 77.4%
  MCH: 21.6 pg
  MCHC: 34%
  MCV: 63.5 fL
  Mono: 3.8%
  Neu: 17%
  PT: 12.8 s
  Plat: 127.2 x10_4/uL
  RBC: 605.6 x10_4/ul
  Ret: 7.7%
  WBC: 69.1 x10_2/uL
  KIDNEY_L: 0.9 g
  KIDNEY_R: 0.9 g
  KIDNEY_TOTAL: 1.8 g
  LIVER: 8.7 g
  A/G: 1.6
  ALP: 711.8 IU/L
  ALT: 29.2 IU/L
  AST: 57.6 IU/L
  BUN: 10.2 mg/dL
  CRE: 0.4 mg/dL
  Ca: 10.5 mg/dL
  Cl: 102.8 meq/L
  DBIL: 0.07 mg/dL
  GLC: 220.6 mg/dL
  IP: 9.1 mg/dL
  K: 3.8 meq/L
  LDH: 149.4 IU/L
  Na: 139.8 meq/L
  PL: 165.4 mg/dL
  RALB: 3.4 g/dL
  TBIL: 0.1 mg/dL
  TC: 89.6 mg/dL
  TG: 73 mg/dL
  TP: 5.7 g/dL
  gamma-GTP: 0.8 IU/L
24 h
  TERMINAL_BW: 213.1 g
  APTT: 17.7 s
  Bas: 0%
  Eos: 1%
  Fbg: 218 mg/dL
  Hb: 13.1 g/dL
  Ht: 39.3%
  Lym: 82.4%
  MCH: 21.6 pg
  MCHC: 33.3%
  MCV: 65 fL
  Mono: 2.2%
  Neu: 13.6%
  PT: 12.8 s
  Plat: 129.1 x10_4/uL
  RBC: 605.4 x10_4/ul
  Ret: 6.8%
  WBC: 77.2 x10_2/uL
  KIDNEY_L: 1 g
  KIDNEY_R: 0.9 g
  KIDNEY_TOTAL: 1.9 g
  LIVER: 9.9 g
  A/G: 1.4
  ALP: 990.6 IU/L
  ALT: 32.6 IU/L
  AST: 69.6 IU/L
  BUN: 12.2 mg/dL
  CRE: 0.4 mg/dL
  Ca: 10.5 mg/dL
  Cl: 104.4 meq/L
  DBIL: 0.082 mg/dL
  GLC: 213 mg/dL
  IP: 7.5 mg/dL
  K: 3.8 meq/L
  LDH: 145.4 IU/L
  Na: 141.2 meq/L
  PL: 175.8 mg/dL
  RALB: 3.3 g/dL
  TBIL: 0.1 mg/dL
  TC: 107.4 mg/dL
  TG: 57.4 mg/dL
  TP: 5.7 g/dL
  gamma-GTP: 0.8 IU/L
